18 molecules from patent US8361996B2, “Imidazolyl substituted steroidal and indan-1-one derivatives” (Council of Scientific and Industrial Research, priority 2005, dated 2013) can be followed below.

Where two headings read alike, the source gives them in different places.

One data set concerns the target T1, aromatase (CYP19) (Homo sapiens, UniProt P11511).
T1 construct: The enzyme was obtained from the microsomal fraction of freshly delivered human term placental tissue; from tissue; host or cells: human term placenta, microsomal fraction
T1 sequence (P11511 1-503): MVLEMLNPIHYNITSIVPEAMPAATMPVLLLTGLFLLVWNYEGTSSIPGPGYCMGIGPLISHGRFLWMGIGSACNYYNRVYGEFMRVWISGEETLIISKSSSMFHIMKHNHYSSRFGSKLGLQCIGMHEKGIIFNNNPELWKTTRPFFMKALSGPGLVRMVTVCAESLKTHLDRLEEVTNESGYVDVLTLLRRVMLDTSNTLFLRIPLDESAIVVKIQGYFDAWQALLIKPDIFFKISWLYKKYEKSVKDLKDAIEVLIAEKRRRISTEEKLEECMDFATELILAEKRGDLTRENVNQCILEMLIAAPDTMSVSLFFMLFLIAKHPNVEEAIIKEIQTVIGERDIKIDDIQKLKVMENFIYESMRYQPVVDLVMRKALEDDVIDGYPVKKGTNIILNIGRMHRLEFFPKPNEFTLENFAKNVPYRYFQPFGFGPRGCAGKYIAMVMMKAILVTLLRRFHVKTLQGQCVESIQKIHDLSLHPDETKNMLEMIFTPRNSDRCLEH
Description: Inhibition of aromatase, human placental microsomes, 3H2O release. Type of data set: biochemical.

Setting [1] is: Substrate: 1β 3H-androstenedione/androstenedione 500 nm.
Where [2] appears, read: human placental microsomes and [1β,2β-3H] testosterone.

One may read the melting point as the temperature of the solid-liquid transition. The term IC50 denotes the concentration needed to halve the response being measured.

`COc1cc(C=C2C[C@H]3[C@@H]4CC=C5C[C@@H](O)CC[C@]5(C)[C@H]4CC[C@]3(C)C2=O)ccc1OCCCn1ccnc1` returned a melting point of 199 to 201 °C.

Molecule `COc1cc(C=C2C[C@H]3[C@@H]4CC=C5C[C@@H](OC(C)=O)CC[C@]5(C)[C@H]4CC[C@]3(C)C2=O)ccc1OCCCn1ccnc1` gave a melting point of 109 to 111 °C.

`COc1cc(C=C2C[C@H]3[C@@H]4CC=C5C[C@@H](OC(C)=O)CC[C@]5(C)[C@H]4CC[C@]3(C)[C@H]2OC(C)=O)ccc1OCCCn1ccnc1` gave a melting point of 163 to 168 °C.

On to `C[C@]12CC[C@H](O)CC1=CC[C@@H]1[C@@H]2CC[C@]2(C)C(=O)C(=Cc3cccc(OCCCn4ccnc4)c3)C[C@@H]12`, for which the melting point fell in the range of 211 to 212 °C.

Molecule `CC(=O)O[C@H]1CC[C@@]2(C)C(=CC[C@H]3[C@@H]4CC(=Cc5cccc(OCCCn6ccnc6)c5)[C@H](OC(C)=O)[C@@]4(C)CC[C@@H]32)C1` registered a melting point of 97 to 99 °C.

`C[C@]12CC[C@H]3[C@@H](CC=C4C[C@@H](O)CC[C@@]43C)[C@@H]1C[C@H](n1ccnc1)[C@@H]2O` had a melting point of 285 to 287 °C.

`CC(=O)O[C@H]1CC[C@@]2(C)C(=CC[C@H]3[C@@H]4C[C@H](n5ccnc5)[C@H](OC(C)=O)[C@@]4(C)CC[C@@H]32)C1` registered a melting point of 197 to 199 °C.

As for `O=C1/C(=C/c2cccc(OCCCn3ccnc3)c2)Cc2ccccc21` [Compound 2, 2-[3-(3-Imidazol-1-yl-propoxy)-benzylidene]-indan-1-one], the melting point lay in the range of 48 to 50 °C. In addition, the “Inhibition on CYP19a RP: Relative potency; relative to aminoglutethimide (=1)” value (“Inhibition on CYP19a RP: Relative potency … (=1)” for short) at aromatase (CYP19) (setting [1]) amounted to 42.5. Further, the “aromatase inhibitory activity (in words)” value on aromatase (CYP19) (setting [2]) is listed as “good aromatase inhibitory activity”.

As for `O=C1/C(=C/c2ccccc2OCCCn2ccnc2)Cc2ccccc21` [Compound 4, 2-[2-(3-Imidazol-1-yl-propoxy)-benzylidene]-indan-1-one], the melting point fell in the range of 76 to 78 °C. On aromatase (CYP19) (setting [1]), the “Inhibition on CYP19a RP: Relative potency … (=1)” value was 26.6. Besides, the “aromatase inhibitory activity (in words)” value at aromatase (CYP19) (setting [2]) is recorded as “good aromatase inhibitory activity”.

`COc1ccc(/C=C2\Cc3ccccc3C2=O)cc1OCCCn1ccnc1` [Compound 6, 2-[3-(3-Imidazol-1-ylpropoxy)-4-methoxybenzylidene)indan-1-one]: the melting point fell in the range of 176 to 180 °C. The “Inhibition on CYP19a RP: Relative potency … (=1)” value on aromatase (CYP19) (setting [1]) is recorded as 22.5. Further, the “aromatase inhibitory activity (in words)” value at aromatase (CYP19) (setting [2]) was “good aromatase inhibitory activity”.

For `COc1cc(/C=C2\Cc3ccccc3C2=O)ccc1OCCCn1ccnc1` [Compound 8, 2-[4-(3-Imidazol-1-ylpropoxy)-3-methoxybenzylidene)indan-1-one], the melting point was in the range of 123 to 127 °C. Also, the “Inhibition on CYP19a RP: Relative potency … (=1)” value at aromatase (CYP19) (setting [1]) is 54.1. At aromatase (CYP19) (setting [2]), the “aromatase inhibitory activity (in words)” value is “good aromatase inhibitory activity”. Moreover, the IC50 at aromatase (CYP19) (human placental microsomes and [1β,2β-3H] testosterone, read-out: IC50 for the aromatase inhibitory activity) worked out at 0.55 µM.

`O=C1C(=Cc2cccc(OCCn3ccnc3)c2)Cc2ccccc21` [Compound 10, 2-[3-(2-Imidazol-1-ylethoxy)-benzylidene]indan-1-one] had a melting point of 218 to 220 °C.

For the molecule `COc1cc(/C=C2\C[C@H]3[C@@H]4CC=C5C[C@@H](O)CC[C@]5(C)[C@H]4CC[C@]3(C)[C@H]2O)ccc1OCCCn1ccnc1` [Compound 14, 16-[4-{3-(Imidazol-1-yl)propoxy}-3-methoxybenzylidene]-5-androstene-3β,17β-diol], the “Inhibition on CYP19a RP: Relative potency … (=1)” value at aromatase (CYP19) (setting [1]) is reported as 12.4. Also, the “aromatase inhibitory activity (in words)” value at aromatase (CYP19) (setting [2]) is listed as “significant aromatase inhibitory activity”.

`C[C@]12CC[C@H]3[C@@H](CC=C4C[C@@H](O)CC[C@@]43C)[C@@H]1C/C(=C\c1cccc(OCCCn3ccnc3)c1)[C@@H]2O` [Compound 20, 16-[3-{3-(imidazol-1-yl)propoxy}benzylidene]-5-androstene-3β,17β-diol] registered a melting point of 133 to 135 °C. For the same molecule, on aromatase (CYP19), the “Inhibition on CYP19a RP: Relative potency … (=1)” value is reported as “IC50: 9.1 μM RP: 3.3”. The IC50 at aromatase (CYP19) (Substrate: 1β 3H-androstenedione/androstenedione 500 nm, read-out: Inhibition on CYP19a IC50) was determined as 9.1 µM. On aromatase (CYP19) (setting [2]), the “aromatase inhibitory activity (in words)” value is on record as “significant aromatase inhibitory activity”.

For the molecule `C[C@]12CCC(=O)C=C1CCC1C2CC[C@]2(C)C(=O)/C(=C/c3cccc(OCCCn4ccnc4)c3)CC12` (stereo partly drawn) [Compound 22, 16-[3-{3-(imidazol-1-yl)propoxy}benzylidene]-4-androstene-3,17-dione], the “aromatase inhibitory activity (in words)” value on aromatase (CYP19) (setting [2]) was “significant aromatase inhibitory activity”.

As for `CC(=O)O[C@H]1CC[C@@]2(C)C(=C/C(=N\OCCCn3ccnc3)[C@H]3[C@@H]4CC[C@H](OC(C)=O)[C@@]4(C)CC[C@@H]32)C1` [Compound 24, 7-[O-{3-(imidazol-1-yl)propyl}oximino]-5-androstene-3β,17β-diol diacetate], the melting point was 180 to 182 °C. At aromatase (CYP19), this molecule showed an IC50 of 3.1 µM. Also, on aromatase (CYP19) (setting [1]), the “Inhibition on CYP19a RP: Relative potency … (=1)” value is “IC50: 3.1 μM RP: 9.6”. Further, the “aromatase inhibitory activity (in words)” value on aromatase (CYP19) (setting [2]) is “significant aromatase inhibitory activity”.

In turn, `C[C@]12CC[C@H]3[C@@H](/C(=N\OCCCn4ccnc4)C=C4C[C@@H](O)CC[C@@]43C)[C@@H]1CC[C@@H]2O` [Compound 25, 7-[O-{3-(Imidazol-1-yl)propyl}oximino]-5-androstene-3β,17β-diol] had a melting point of 205 to 206 °C. At aromatase (CYP19), this molecule displayed an IC50 of 12 µM. Also, the “Inhibition on CYP19a RP: Relative potency … (=1)” value on aromatase (CYP19) (setting [1]) was “IC50: 12 μM RP: 2.5”. Further, the “aromatase inhibitory activity (in words)” value at aromatase (CYP19) (setting [2]) is “significant aromatase inhibitory activity”.

In turn, `C[C@]12CC[C@H](O)CC1=CC[C@@H]1[C@@H]2CC[C@]2(C)C(=O)[C@@H](n3ccnc3)C[C@@H]12` [Compound 27, 16β-(Imidazol-1-yl)-17-oxo-5-androsten-3β-ol] showed a melting point of 249 to 251 °C. Moreover, at aromatase (CYP19) (setting [1]), the “Inhibition on CYP19a RP: Relative potency … (=1)” value is recorded as “IC50: 3.3 Mm RP: 9.0”. For the same molecule, on aromatase (CYP19) (setting [2]), the “aromatase inhibitory activity (in words)” value is “significant aromatase inhibitory activity”.
